Measured values taken from patent publication US10093670B2, “Azabenzimidazole derivative having AMPK-activating activity” (Shionogi & Co., Ltd., priority 2011, dated 2018).

How the values were obtained:
human AMPK α1β1γ1 enzyme = biological target: T1, human AMPK α1β1γ1 enzyme (Homo sapiens, UniProt Q13131+Q9Y478); assay: Evaluation of AMPK activator, Test Example 1 (mobility-shift kinase assay, FL-Peptide 7); type: biochemical
T1 construct: purchased Carna Biosciences, Inc
Experimental: The obtained liquid was left to stand for 10 minutes.
The obtained liquid was allowed to react at 25° C. for 2 hours, and 10 μl of 20 mM EDTA was then added thereto to stop the reaction.
(§1) To detect phosphorylated fluorescent substrates, the reaction liquid was applied to a measuring device, LabChip EZ Reader II manufactured by Caliper Life Science, Inc., for detecting fluorescence by using differences in mobility due to differences in charge. The setting conditions for the device were pressure, −1.5 PSI; upstream voltage, −2250 V; downstream voltage, −400 V; post sample buffer sip time, 40 seconds; final delay, 120 seconds; and peak order, Product First.
(§2) A conversion rate was calculated from the peak heights of the resulting substrate and product. The conversion rate when not containing a compound was used as a control, and a concentration dependent curve was made by plotting the rate of increase in activity to the control at each concentration of a compound.

Human AMPK α2β2γ1 = biological target: T2, Human AMPK α2β2γ1 (Homo sapiens, UniProt O43741+P54646); assay: Evaluation of AMPK activator, Test Example 2 (CaMKK2-phosphorylated enzyme, mobility-shift kinase assay); type: biochemical
T2 construct: The full length cDNAs of human AMPK β2 (NM_005399.3) and human AMPK α2 (NM_006252.3) were inserted; the full length cDNA of human AMPK γ1 (NM_002733.3) had been inserted into pET28b(+); 6xHis (N); made in house; host or cells: Escherichia coli BL21 CodonPlus (DE3)-RIL (AMPK); BL21 Star (DE3) (CaMKKβ)
T2 sequence (P54646 whole entry): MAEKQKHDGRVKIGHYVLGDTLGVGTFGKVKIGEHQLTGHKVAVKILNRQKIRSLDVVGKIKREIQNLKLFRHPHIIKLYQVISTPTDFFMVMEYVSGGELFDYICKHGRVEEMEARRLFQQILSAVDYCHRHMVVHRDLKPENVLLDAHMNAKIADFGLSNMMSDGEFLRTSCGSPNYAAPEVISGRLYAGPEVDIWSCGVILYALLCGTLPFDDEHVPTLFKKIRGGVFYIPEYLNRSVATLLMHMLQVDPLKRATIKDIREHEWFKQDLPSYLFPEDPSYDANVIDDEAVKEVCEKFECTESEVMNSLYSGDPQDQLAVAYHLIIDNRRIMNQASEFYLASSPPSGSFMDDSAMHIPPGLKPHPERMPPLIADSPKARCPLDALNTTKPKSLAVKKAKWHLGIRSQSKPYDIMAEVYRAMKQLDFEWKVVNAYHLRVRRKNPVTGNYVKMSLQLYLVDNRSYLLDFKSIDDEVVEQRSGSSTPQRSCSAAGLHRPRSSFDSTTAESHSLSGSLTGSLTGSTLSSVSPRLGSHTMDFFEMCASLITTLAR
T2 sequence (O43741 whole entry): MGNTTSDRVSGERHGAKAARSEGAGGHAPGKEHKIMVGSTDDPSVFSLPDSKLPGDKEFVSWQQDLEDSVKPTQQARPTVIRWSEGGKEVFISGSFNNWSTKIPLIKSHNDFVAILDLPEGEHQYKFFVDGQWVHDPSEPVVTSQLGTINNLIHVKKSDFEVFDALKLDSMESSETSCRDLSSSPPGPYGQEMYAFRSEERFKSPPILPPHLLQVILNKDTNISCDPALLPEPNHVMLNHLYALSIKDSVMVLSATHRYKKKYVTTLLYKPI
T2 sequence (P54619 whole entry partner): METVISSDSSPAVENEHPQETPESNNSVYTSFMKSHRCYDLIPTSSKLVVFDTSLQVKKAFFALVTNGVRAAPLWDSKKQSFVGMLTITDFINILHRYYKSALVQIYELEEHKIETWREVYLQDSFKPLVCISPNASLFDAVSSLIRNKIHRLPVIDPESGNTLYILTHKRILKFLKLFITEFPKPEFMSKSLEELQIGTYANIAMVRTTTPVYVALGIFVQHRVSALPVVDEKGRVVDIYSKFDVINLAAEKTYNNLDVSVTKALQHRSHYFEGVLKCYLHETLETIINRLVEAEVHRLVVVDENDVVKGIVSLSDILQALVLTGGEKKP
Experimental: The full length cDNAs of human AMPK β2 (NM_005399.3) and human AMPK α2 (NM_006252.3) were inserted into the MCS1 and MCS2 of the pETDuet-1 vector to prepare a human AMPK β2 and human AMPK α2 (6× His tag at the 5′ terminus) expressing plasmid. The plasmid was contransfected with an expression plasmid, in which the full length cDNA of human AMPK γ1 (NM_002733.3) had been inserted into pET28b(+), into BL21 CodonPlus (DE3)-RIL to obtain an expression strain. The expression strain was cultured in TB medium, followed by induction with 0.5 mM IPTG, and cultured at 25° C. for 3 hours and then harvested. After ultrasonication, supernatant was collected and applied to Histrap FF column (GE) and RESOUECE Q column (GE) to prepare 12.5 mg of purified sample containing three types of subunit from 1.8 L of broth.
An expression vector, in which the full length cDNA of human CAMKK β (NM_172226.1) had been inserted into pGEX-6P-3, was transfected into BL21 Star (DE3). The expression strain was cultured in TB medium, followed by induction with 0.5 mM IPTG, and cultured at 25° C. for 3 hours and then harvested. After ultrasonication, supernatant was collected and applied to GSTrap FF column (GE) to prepare 14 mg of GST-fused CAMKK β from 720 ml of broth.
Evaluation Method of an Activator for AMP-activated Protein Kinase (AMPK) (Test Example 2)
Thus, phosphorylation treatment was carried out as pretreatment.
Human AMPK α2β2γ1 in an amount to give a conversion rate of approximately 10% by reaction for 2 hours, and CaMKK2 in an amount capable of sufficiently imparting activity to AMPK for one hour were mixed in a buffer solution consisting of a 50 mM HEPES-NaOH buffer solution (pH 7.0), 100 mM NaCl, 5 mM magnesium chloride, 0.1% bovine serum albumin, 0.2 mM sodium orthovanadate(V), 1 mM ethylene glycol-bis(2-aminoethyl ether)-N,N,N′,N′-tetraacetic acid (EGTA), 5 mM disodium β-glycerophosphate, 1 mM dithiothreitol and 0.2 mM ATP, and the obtained liquid was left to stand at 25° C. for 1 to 1.5 hours to sufficiently phosphorylate AMPK.
After that, to the enzyme liquid, which had been subjected to phosphorylation treatment, a compound dissolved in DMSO was added so as to have a 1% DMSO concentration. The obtained liquid was left to stand for 10 minutes.
To the liquid, a substrate solution consisting of a 50 mM HEPES-NaOH buffer solution (pH 7.0), 100 mM NaCl, 10 mM magnesium chloride, 0.1% bovine serum albumin, 0.2 mM sodium orthovanadate(V), 1 mM ethylene glycol-bis(2-aminoethyl ether)-N,N,N′,N′-tetraacetic acid (EGTA), 5 mM disodium β-glycerophosphate, 2 mM dithiothreitol, 0.4 mM ATP and 3 μM FL-Peptide 7 (manufactured by Caliper Life Sciences, Inc.) was added in equal amount (10 μl in total). The obtained liquid was allowed to react at 25° C. for 2 hours, and 10 μl of 20 mM EDTA was then added thereto to stop the reaction.
as §1, §2

T1 sequence (Q13131 10-559 limits assumed): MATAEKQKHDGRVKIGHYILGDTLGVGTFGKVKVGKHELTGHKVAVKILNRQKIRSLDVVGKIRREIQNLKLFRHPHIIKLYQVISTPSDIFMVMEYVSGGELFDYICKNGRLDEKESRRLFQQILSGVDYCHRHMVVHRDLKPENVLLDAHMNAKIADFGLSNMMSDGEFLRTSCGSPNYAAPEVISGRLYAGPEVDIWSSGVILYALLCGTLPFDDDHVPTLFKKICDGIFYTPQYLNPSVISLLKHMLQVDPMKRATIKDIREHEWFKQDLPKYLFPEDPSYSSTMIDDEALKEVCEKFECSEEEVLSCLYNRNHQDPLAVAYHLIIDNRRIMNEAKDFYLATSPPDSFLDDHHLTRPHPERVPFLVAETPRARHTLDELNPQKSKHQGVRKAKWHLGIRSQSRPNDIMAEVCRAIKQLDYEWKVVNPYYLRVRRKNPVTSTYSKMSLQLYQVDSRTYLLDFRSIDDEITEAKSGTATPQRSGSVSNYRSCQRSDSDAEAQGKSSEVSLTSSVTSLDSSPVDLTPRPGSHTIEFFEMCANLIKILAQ
T1 sequence (Q9Y478 whole entry): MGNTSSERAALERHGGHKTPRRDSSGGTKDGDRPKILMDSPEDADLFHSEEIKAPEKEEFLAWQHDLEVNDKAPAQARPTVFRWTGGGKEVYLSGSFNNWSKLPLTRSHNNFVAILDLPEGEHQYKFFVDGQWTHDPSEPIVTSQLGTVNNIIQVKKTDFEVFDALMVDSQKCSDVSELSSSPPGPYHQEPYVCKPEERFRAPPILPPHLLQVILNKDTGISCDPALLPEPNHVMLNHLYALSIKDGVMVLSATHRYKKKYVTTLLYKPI
T1 sequence (P54619 whole entry partner): as the sequence (P54619 whole entry partner) above

## CC(=O)NC1CC=C(c2ccc(-c3nc4nc(O[C@H]5CC[C@H](C(C)(C)CO)CC5)[nH]c4cc3Cl)cc2)CC1 (stereo partly shown) [Compound I-3-86]
Human AMPK α1β1γ1 enzyme; human AMPK α1β1γ1, 25° C., 2 hours, 0.2 mM ATP final
  EC150 (compound concentration showing 150% relative to the control (100%)): 23 nM
Human AMPK α1β1γ1 enzyme; human AMPK α1β1γ1, relative to control (100%), read-out: Emax (maximum rate of increase in activity within the measurement range)
  Emax: 277%
Human AMPK α2β2γ1; human AMPK α2β2γ1 phosphorylated by CaMKK2, 25° C., 2 hours
  EC150 (compound concentration showing 150% relative to the control (100%)): 11 nM
Human AMPK α2β2γ1; human AMPK α2β2γ1 phosphorylated by CaMKK2, relative to control (100%), read-out: Emax (maximum rate of increase in activity within the measurement range)
  Emax: 259%
